Some test systems named below: A498; CAKI-1; HOP-62; HOP-92; HT-29; IGROV-1; K562; M14; NCI-H522; OVCAR-3; OVCAR-8; SF-268; SK-MEL-2; SW-620; UACC-62; HL-60.
Test in all cases: growth of human tumour cells (NCI), 48 h

These results are taken from ChEMBL document CHEMBL1201862, “PubChem BioAssay data set” (2004).

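Five compound concentrations were applied to cells in 96-well plates for 48 hours; endpoints were derived by simple linear interpolation of the resulting dose-response curve. GI50 marks 50% less growth.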 The source made the active and inactive calls. Rule as the data show it: active = GI50 up to about 1.1 µM and inactive = higher.

As to `CCCCCN(CCCCC)C(=O)[C@@H](CCC(=O)OCc1ccccc1)NC(=O)c1cc2ccccc2[nH]1`, the GI50 is > 100 µM (inactive) in the test on A498; 8.81 µM (inactive) with CAKI-1; > 100 µM (inactive) with HOP-62; > 100 µM (inactive) with HOP-92; > 100 µM (inactive) with HT-29; > 100 µM (inactive) in the test on IGROV-1. Besides, the GI50 in the test with K562 was 5.55 µM (inactive); in the test on M14 it was > 100 µM (inactive); with NCI-H522, > 100 µM (inactive); with OVCAR-3, > 100 µM (inactive); in the test on OVCAR-8, 6.15 µM (inactive); with SF-268, > 100 µM (inactive). Further, the GI50 in the test on SK-MEL-2 was > 100 µM (inactive); in the test on SW-620 it was > 100 µM (inactive); in the test with UACC-62 it was 6.78 µM (inactive).

In the case of `CC1(Br)CC2OC3(Br)C=CC(C)(O)C2(CC1=O)C3(C)C` (configuration not stated), the GI50 in the test on A498 is > 100 µM (inactive); in the test on CAKI-1, > 100 µM (inactive); in the test with HOP-62 it was > 100 µM (inactive); in the test with HOP-92, 64.4 µM (inactive); in the test on HT-29, > 100 µM (inactive); in the test on IGROV-1, > 100 µM (inactive). Moreover, the GI50 in the test with K562 was 19.1 µM (inactive); in the test on M14 it was > 100 µM (inactive); in the test on NCI-H522, 53.3 µM (inactive); in the test with OVCAR-3, > 100 µM (inactive); in the test with OVCAR-8, > 100 µM (inactive); with SF-268 it was > 100 µM (inactive). The GI50 was > 100 µM (inactive) in the test with SK-MEL-2, > 100 µM (inactive) in the test with SW-620 and 99.1 µM (inactive) in the test with UACC-62.

With `O=C1C2C(C(=O)N1O)N(Cc1ccccc1)C(=O)N2Cc1ccccc1` (configuration not stated), the GI50 in the test with A498, in the test with CAKI-1, with HL-60, in the test on HOP-62, with HOP-92 and with HT-29 was > 100 µM (inactive) each time. Also, the GI50 in the test with IGROV-1, with K562, in the test on M14, in the test with NCI-H522, in the test on OVCAR-3 and with OVCAR-8 was > 100 µM (inactive) in each case. Besides, the GI50 in the test with SF-268, in the test with SW-620 and with UACC-62 was > 100 µM (inactive) in each case.

With `OC12CCCCCC1(N1CCOCC1)c1ccccc12` (configuration not stated), the GI50 in the test with A498, in the test on CAKI-1, in the test on HL-60, in the test on HOP-62, in the test with HT-29 and in the test on IGROV-1 was > 100 µM (inactive) in each case. The GI50 in the test on K562, in the test on M14, with NCI-H522, with OVCAR-3, in the test on OVCAR-8 and in the test with SF-268 was > 100 µM (inactive) throughout. The GI50 in the test with SK-MEL-2, in the test on SW-620 and with UACC-62 was > 100 µM (inactive) each time.

As for `O=C(Cc1ccccc1)NN1C(=O)C(Cl)C1c1cc(Br)cc(Br)c1O` (configuration not stated), the GI50 with CAKI-1 is 25.8 µM (inactive); in the test with HL-60, 2.13 µM (inactive); in the test on HOP-62 it was 14 µM (inactive); in the test on HT-29, 21.6 µM (inactive); in the test on IGROV-1 it was 13.1 µM (inactive); in the test with K562, 6.44 µM (inactive). Also, the GI50 with M14 is 14.8 µM (inactive); in the test with NCI-H522 it was 3.8 µM (inactive); in the test with OVCAR-3, 2.71 µM (inactive); in the test with OVCAR-8 it was 8.87 µM (inactive); with SF-268 it was 3.63 µM (inactive); in the test with SK-MEL-2 it was 15.1 µM (inactive). In addition, the GI50 with SW-620 was 7.14 µM (inactive); in the test on UACC-62, 10.3 µM (inactive).

`C#CC1(O)c2ccccc2C(=O)c2ccccc21`: the GI50 is 10.9 µM (inactive) in the test with A498; > 100 µM (inactive) with CAKI-1; > 100 µM (inactive) in the test on HL-60; > 100 µM (inactive) with HOP-62; 21.6 µM (inactive) in the test on HOP-92; > 100 µM (inactive) in the test on HT-29. The GI50 in the test on IGROV-1 is 11.8 µM (inactive); in the test on K562, > 100 µM (inactive); with NCI-H522, > 100 µM (inactive); in the test with OVCAR-8 it was > 100 µM (inactive); in the test with SF-268, > 100 µM (inactive); with SK-MEL-2, > 100 µM (inactive). Further, the GI50 in the test on SW-620 is > 100 µM (inactive).

Regarding `N#CCCCCCOCCOCCOCCOCCOCCCCCC#N`, the GI50 with A498, in the test with CAKI-1, in the test on HL-60, in the test on HOP-62, in the test with HT-29 and in the test with IGROV-1 was > 100 µM (inactive) each time. Also, the GI50 was 68.5 µM (inactive) in the test on K562; > 100 µM (inactive) in the test on M14; > 100 µM (inactive) in the test on NCI-H522; 97.7 µM (inactive) in the test on OVCAR-3; > 100 µM (inactive) in the test with OVCAR-8; > 100 µM (inactive) with SF-268. Further, the figures for the GI50 in the test on SK-MEL-2, in the test on SW-620 and in the test on UACC-62 were > 100 µM (inactive), > 100 µM (inactive) and 68.7 µM (inactive), respectively.

With `C/C(CC(=O)Nc1cccc(Cl)c1C)=N\NC(=O)c1ccncc1`, the GI50 in the test on HL-60, in the test on HOP-62, with HOP-92, with HT-29, with IGROV-1 and with K562 was > 100 µM (inactive) each time. For the same molecule, the GI50 with M14 was > 100 µM (inactive); in the test with NCI-H522, 21.4 µM (inactive); in the test on OVCAR-3 it was > 100 µM (inactive); in the test with OVCAR-8, > 100 µM (inactive); in the test with SF-268 it was > 100 µM (inactive); in the test on SK-MEL-2, > 100 µM (inactive). Moreover, the GI50 with SW-620 and with UACC-62 was > 100 µM (inactive) throughout.

`OC1/C(=C/c2ccccc2)CNC/C1=C\c1ccccc1` (configuration not stated): the GI50 in the test on A498 is > 100 µM (inactive); in the test on CAKI-1 it was 43.1 µM (inactive); in the test on HL-60, 92.7 µM (inactive); with HOP-62, > 100 µM (inactive); in the test with HOP-92, 96.8 µM (inactive); in the test with HT-29, 89.7 µM (inactive). For the same molecule, the GI50 with IGROV-1, in the test with M14, in the test with NCI-H522, in the test on OVCAR-3, in the test on OVCAR-8 and in the test on SF-268 was > 100 µM (inactive) throughout. For the same molecule, the GI50 in the test with SW-620 and in the test with UACC-62 was > 100 µM (inactive) in each case.

On to `O=Cc1ccc2c(c1-c1c(C=O)ccc3c1OCO3)OCO2`, for which the GI50 with A498, in the test on CAKI-1, in the test on HL-60, in the test with HOP-62, with HT-29 and with IGROV-1 was > 100 µM (inactive) in each case. Further, the GI50 in the test with K562, with M14, in the test on NCI-H522, with OVCAR-3, in the test with OVCAR-8 and in the test with SF-268 was > 100 µM (inactive) each time. Also, the GI50 in the test on SK-MEL-2, in the test with SW-620 and in the test on UACC-62 was > 100 µM (inactive) in each case.

`CC(C)(O)[C@@H]1CCC(C)([C@H]2[C@@H](O)CC3(C)C4CC(OC5OC(CO)C(O)C(O)C5O)C5C(C)(C)[C@@H](OC6OCC(O)C(O)C6O)CC[C@@]56C[C@@]46CC[C@]23C)O1` (some centres not stated): the GI50 in the test on HL-60, in the test on HOP-92, in the test on HT-29, with IGROV-1, in the test with K562 and in the test on M14 was > 100 µM (inactive) throughout. Further, the GI50 with NCI-H522, in the test on OVCAR-3, in the test on OVCAR-8, in the test with SF-268, with SK-MEL-2 and with SW-620 was > 100 µM (inactive) in each case. In the test with UACC-62, the GI50 was > 100 µM (inactive).

For `COc1cc2c(c(OC)c1OC)-c1ccc(SC)c(=O)cc1[C@@H](NC(=O)c1cccc([N+](=O)[O-])c1)CC2`, the GI50 in the test on A498 was 0.0198 µM (active); with CAKI-1, 0.049 µM (active); in the test on HL-60, < 0.01 µM (active); in the test on HOP-62, 0.0257 µM (active); with HT-29 it was 0.0241 µM (active); in the test on IGROV-1, 0.0288 µM (active). The GI50 in the test on K562 was < 0.01 µM (active); with M14, 0.0154 µM (active); in the test on NCI-H522, < 0.01 µM (active); in the test on OVCAR-3, 0.0191 µM (active); in the test with OVCAR-8 it was 0.024 µM (active); in the test on SF-268 it was 0.0214 µM (active). The GI50 in the test on SW-620 was 0.0276 µM (active); in the test with UACC-62, 0.0292 µM (active).

In the case of `Cn1c(=O)nc2n(-c3cccc(Br)c3)c3ccccc3nc-2c1=O`, the GI50 in the test on A498 is 10.2 µM (inactive); with CAKI-1, 12.3 µM (inactive); with HL-60 it was 2.54 µM (inactive); in the test on HOP-62, 14.8 µM (inactive); in the test on HT-29, 2.82 µM (inactive); with IGROV-1, 7.76 µM (inactive). For the same molecule, the GI50 with K562 was 5.16 µM (inactive); with M14 it was 2.81 µM (inactive); with NCI-H522, 6.62 µM (inactive); with OVCAR-3, 2.38 µM (inactive); in the test with OVCAR-8 it was 3.56 µM (inactive); in the test with SF-268, 8.91 µM (inactive). Moreover, the GI50 was 5.06 µM (inactive) in the test with SK-MEL-2, 2.61 µM (inactive) in the test on SW-620 and 1.63 µM (inactive) in the test with UACC-62.
